The source of these data is US6943007B2, “Immuno-stimulating polysaccharide substance from Phellinus spp. strain and use thereof” (Korea Institute of Science and Technology, priority 1998, dated 2005).

Series [1] deals with B16F10 cutaneous cancer cells. In words: Viability of mice implanted peritoneally with B16F10 cells, immunochemotherapy co-administration (60 days). The format is in vivo, mouse. The note with it: for body weight during the test: all test groups, alone or in combination, 60-day test; for Proportion (%): untreated = 100.
Description: (§1) A homogeneous plantation test system of B16F10 cutaneous cancer cell was utilized for the measurement of the anticancer activity upon co-administration of the polysaccharide substance and adriamycin. The cutaneous cancer cells were implanted in the peritoneal cavity of mice. Adriamycin was peritoneally administrated to the mice for 12 days after tumor implantation while the polysaccharide substance was peritoneally administrated from a week before the implantation to 12 days after the implantation. For 60 days, the viability of the mice was recorded everyday. Adriamycin was used at such low amounts as not to damage the mice.
The cutaneous cancer cells were implanted in the peritoneal cavity of mice. […] For 60 days, the viability of the mice was recorded everyday.
The cutaneous cancer cells were implanted in the peritoneal cavity of mice. […] For 60 days, the viability of the mice was recorded everyday. Cisplastin was used at such low amounts as not to damage the mice.
as §1, with “5-fluoro uracil, as in the above experiments.” for “adriamycin.”, “5-fluoro uracil” for “Adriamycin”

The test system of series [2] is NCl-H23 lung cancer cells. The series can be described thus: Human cancer cells implanted subcutaneously in nude mice. Type of series: in vivo. As to the method: The activity of the polysaccharide substance against human cancer was assayed using NCl-H23, a lung cancer cell line. Nude mice were subcutaneously implanted with NCl-H23 lung cancer cells. The polysaccharide substance and adriamycin were peritoneally administrated to the nude mice for 12 days after cancer cell implantation. The size of a mass of the cancer cells was measured and the cancer cells were separated and weighed on the 19th day after cancer cell implantation. Because the nude mice were devoid of T-cells, their immunological competency was generally attributed to the activity of natural killer cells or macrophage cells. Therefore, the immunological enhancement obtained when administrating the polysaccharide substance was meditated through these two type cells.

For series [3], the system named is B16F10 cutaneous cancer cells. The series can be described thus: Lung metastasis of B16F10 cells implanted in tail veins. The format is in vivo, C57BL/6 mice. The note with it: 14th day. The text has this: In order to test the polysaccharide substance for the prevention of cancer metastasis, B16F10 cutaneous cancer cells were implanted in the tail veins of C57BL/6 mice. On the 14th day after implantation, the lungs were isolated from the mice to investigate whether or to what extent cancer metastasis occurred. Adriamycin was peritoneally administrated to the mice for 12 days after tumor implantation while the polysaccharide substance was peritoneally administrated from a week before the implantation to 12 days after the implantation.

Series [4] has as its system B16F10 mouse cutaneous cancer cells. In words: Direct cytotoxicity, sulforhodamin B method. Type of series: cell-based. The following applies: 2nd day after treatment.
The test system of series [5] is NCl-H23 human lung cancer cells. The series can be described thus: Direct cytotoxicity, sulforhodamin B method. The format is cell-based. The note with it: 2nd day after treatment.
For another series, the system named is B-cells. In words: B-cell antibody-forming cell method. The note with it: 10 μg/mL. The format is cell-based, mice. The text has this:
A better understanding of the present invention may be obtained through the following examples which are set forth to illustrate, but are not to be construed as the limit of the present invention. In the following examples, splenocytes taken from B6C3F mice were used for the measurement of the immuno-stimulating activity of the polysaccharide substances isolated from Phellinus linteus Yoo and other Phellinus spp. First, the splenocytes were immunized for 2 days by treatment with the substances and lipopolysaccharide as a positive control. The antibodies formed were measured by a spectrophotometer and considered as a standard for the immuno-stimulating activity. The effect of the polysaccharide substance on the proliferation of T-cells was measured by a mixed lymphocyte response technique. To detect the proliferation of lymphocytes, nuclear DNA which was newly synthesized in lymphocytes was measured by using ^3H-thymidine. In this example, B-cells were counted by use of an antibody-forming cell method and the proliferation of T-cells was measured by a mixed lymphocyte response technique. In addition, in order to detect the effect of the polysaccharide substance on the proliferation of lymphocytes, the nuclear DNA which was newly synthesized was measured by using ^3H-thymidine.

For `O=c1[nH]cc(F)c(=O)[nH]1` [5-FU, 5-fluoro uracil], the “Nos. of viable mice on the 60th day” value in series [1] (5-FU 1 mg/kg) was 0/10; in series [1] (5-FU 3 mg/kg) it was 2/10. The “Avg. Viability” value in series [1] (5-FU 1 mg/kg peritoneally for 12 days after implantation) is 33.0 days. Also, the “body weight during the test” value in series [1] is on record as “did not lose body weight”.
In the case of `COc1cccc2c1C(=O)c1c(O)c3c(c(O)c1C2=O)C[C@@](O)(C(=O)CO)C[C@@H]3O[C@H]1C[C@H](N)[C@H](O)[C@H](C)O1` [Adriamycin, adriamycin], the entries for the “Nos. of viable mice on the 60th day” value in series [1] (Am 0.1 mg/kg) and in series [1] (Am 0.3 mg/kg) were 0/10 and 2/10, respectively. Moreover, the “body weight during the test” value in series [1] is “did not lose body weight”. In series [2] (14th day, Am 1 mg/kg peritoneally for 12 days after implantation), the Cell size result is reported as “Am^2 (1 mg/kg) 12 mm^3”. Also, the “Final Cancer Weight” value in series [2] (19th day after implantation, Adriamycin 1 mg/kg) amounted to 95. Also, the “body weight of tested mice” value in series [2] (nude mice, all test groups) is listed as “did not gain or lose body weight”. The “Nos. of Spots (cancer spots on the lungs)” value is reported as 197 in series [3] (Adriamycin 1 mg/kg peritoneally for 12 days) and 172 in series [3] (Adriamycin 3 mg/kg). The “cell quantity (untreated = 100%)” value in series [4] (1 μg/mL) is given as 29%; in series [4] (3 μg/mL), 9%; in series [4] (10 μg/ml), −10%; in series [4] (30 μg/mL), −10%; in series [5] (1 μg/mL), 71%; in series [5] (3 μg/mL), 39%. For the same molecule, the “cell quantity (untreated = 100%)” value in series [5] (10 μg/ml) is 7%; in series [5] (30 μg/mL), −1%.
Take `N.N.[Cl][Pt][Cl]` [C.P, Cisplatin]: the entries for the “Nos. of viable mice on the 60th day” value in series [1] (C.P 0.5 mg/kg) and in series [1] (C.P 1.5 mg/kg) were 0/10 and 2/10, respectively. Also, the “Avg. Viability” value is 33.0 days in series [1] (C.P 0.5 mg/kg peritoneally for 12 days after implantation) and 33 days in series [1] (C.P 0.5 mg/kg peritoneally for 12 days after implantation, listed as Cisplatin).
Consider `CO[C@@]12[C@H](COC(N)=O)C3=C(C(=O)C(C)=C(N)C3=O)N1C[C@@H]1N[C@@H]12` [M.C, Mitomycin C], for which, in series [1] (M.C 0.2 mg/kg), the “Nos. of viable mice on the 60th day” value was 0/10 and the “Proportion (%)” value was 179.6%. The “Avg. Viability” value in series [1] (M.C 0.2 mg/kg peritoneally for 12 days after implantation) is listed as 32.5 days. In series [1] (M.C 0.6 mg/kg), the “Avg. Viability” value is recorded as 38.0 days, the “Nos. of viable mice on the 60th day” value is on record as 1/10 and the “Proportion (%)” value worked out at 209.9%.
Take lipopolysaccharide [LPS]: the “B-Cell Antibody-forming” value in the series on B-cells worked out at 0.81 ± 0.23 Abs 576 nm.
